# Results published in patent US10815276B2, “Cell penetrating peptides and methods of making and using thereof” (Entrada Therapeutics, Inc., priority 2014, dated 2020).
# Starred links: 1 amine or outer side, 2 acyl side, 3 side chain; linkers in the order of their positions; H or OH if unused. Positions of bridges follow the written chain, without caps; N, C: chain ends. Non-standard residues stand in square brackets, D forms with d. Residues, ends and D or L forms follow the SMILES beside them. No end group written: not given here. Trimesoyl = O=C(c1cc(C(=O)[*:2])cc(C(=O)[*:3])c1)[*:1]; Phe(4-F) = N[C@@H](Cc1ccc(F)cc1)C(=O)O; dPhe(4-F) = N[C@H](Cc1ccc(F)cc1)C(=O)O; 2Nal = N[C@@H](Cc1ccc2ccccc2c1)C(=O)O; Pip = O=C(O)[C@@H]1CCCCN1; Dap = NC[C@H](N)C(=O)O
# Experiments:
# [1] = molecular target: T1, Grb2 SH2 domain (Homo sapiens, UniProt P62993); assay: Selectivity panel binding
# T1 construct: the Grb2 SH2 domain
# T1 sequence (P62993 60-152 limits assumed): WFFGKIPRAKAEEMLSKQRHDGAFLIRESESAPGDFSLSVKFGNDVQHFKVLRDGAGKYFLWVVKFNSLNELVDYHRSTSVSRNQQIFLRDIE
# Experimental: (§1) The selectivity of peptide 37 was assessed by two different tests. First, peptide 37 was tested for binding to a panel of arbitrarily selected proteins including bovine serum albumin (BSA), protein tyrosine phosphatases 1B, SHP1, and SHP2, the Grb2 SH2 domain, Ras, and tumor necrosis factor-a. […] Peptide 37 was next tested for potential inhibition of Pin4, FKBP12, and cyclophilin A, the three other common human peptidyl-prolyl cis-trans isomerases. […] Peptide 37 had no effect on the catalytic activity of FKBP12 or cyclophilin A up to 5 μM concentration.
# [2] = molecular target: SHP1 (Homo sapiens, UniProt P29350); assay: Selectivity panel binding
# Sequence of SHP1 (P29350 whole entry): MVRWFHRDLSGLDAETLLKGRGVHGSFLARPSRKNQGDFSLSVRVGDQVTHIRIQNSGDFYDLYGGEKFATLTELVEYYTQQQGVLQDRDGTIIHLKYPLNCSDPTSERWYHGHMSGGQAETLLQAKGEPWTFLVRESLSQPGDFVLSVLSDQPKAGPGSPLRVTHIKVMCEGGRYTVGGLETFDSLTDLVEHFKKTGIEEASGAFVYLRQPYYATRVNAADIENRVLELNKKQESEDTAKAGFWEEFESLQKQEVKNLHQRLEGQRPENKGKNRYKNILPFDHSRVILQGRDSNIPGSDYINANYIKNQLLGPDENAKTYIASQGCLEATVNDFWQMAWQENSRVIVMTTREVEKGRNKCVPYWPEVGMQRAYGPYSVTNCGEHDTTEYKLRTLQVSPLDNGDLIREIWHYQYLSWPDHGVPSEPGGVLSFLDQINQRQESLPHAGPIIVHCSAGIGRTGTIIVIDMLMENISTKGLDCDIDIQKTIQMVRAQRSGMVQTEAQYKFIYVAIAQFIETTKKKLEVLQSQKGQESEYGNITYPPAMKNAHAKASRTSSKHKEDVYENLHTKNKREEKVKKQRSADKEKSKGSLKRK
# Experimental: as §1
# [3] = system: Ras; assay: Selectivity panel binding
# Experimental: as §1
# [4] = molecular target: protein tyrosine phosphatases 1B (Homo sapiens, UniProt P18031); assay: Selectivity panel binding
# Sequence of protein tyrosine phosphatases 1B (P18031 whole entry): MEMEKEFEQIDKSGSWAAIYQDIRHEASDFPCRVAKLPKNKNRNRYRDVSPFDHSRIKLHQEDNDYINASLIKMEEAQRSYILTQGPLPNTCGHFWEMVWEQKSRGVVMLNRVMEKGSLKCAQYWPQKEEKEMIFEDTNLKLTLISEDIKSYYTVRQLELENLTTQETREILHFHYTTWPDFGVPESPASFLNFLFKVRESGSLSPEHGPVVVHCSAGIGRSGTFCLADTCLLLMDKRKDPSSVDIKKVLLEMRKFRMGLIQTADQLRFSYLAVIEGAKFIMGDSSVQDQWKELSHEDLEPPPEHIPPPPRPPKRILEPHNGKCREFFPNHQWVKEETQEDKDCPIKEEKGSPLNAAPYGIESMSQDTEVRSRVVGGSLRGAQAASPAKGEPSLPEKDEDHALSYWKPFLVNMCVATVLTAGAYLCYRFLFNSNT
# Experimental: as §1
# [5] = molecular target: tumor necrosis factor-a (Homo sapiens, UniProt P01375); assay: Selectivity panel binding
# Sequence of tumor necrosis factor-a (P01375 77-233 limits assumed): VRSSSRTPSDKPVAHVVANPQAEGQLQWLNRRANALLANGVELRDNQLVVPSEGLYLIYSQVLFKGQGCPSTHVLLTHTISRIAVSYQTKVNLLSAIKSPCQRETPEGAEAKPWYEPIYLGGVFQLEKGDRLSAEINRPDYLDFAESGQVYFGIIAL
# Experimental: as §1
# [6] = molecular target: SHP2 (Homo sapiens, UniProt Q06124); assay: Selectivity panel binding
# Sequence of SHP2 (Q06124 whole entry, species assumed): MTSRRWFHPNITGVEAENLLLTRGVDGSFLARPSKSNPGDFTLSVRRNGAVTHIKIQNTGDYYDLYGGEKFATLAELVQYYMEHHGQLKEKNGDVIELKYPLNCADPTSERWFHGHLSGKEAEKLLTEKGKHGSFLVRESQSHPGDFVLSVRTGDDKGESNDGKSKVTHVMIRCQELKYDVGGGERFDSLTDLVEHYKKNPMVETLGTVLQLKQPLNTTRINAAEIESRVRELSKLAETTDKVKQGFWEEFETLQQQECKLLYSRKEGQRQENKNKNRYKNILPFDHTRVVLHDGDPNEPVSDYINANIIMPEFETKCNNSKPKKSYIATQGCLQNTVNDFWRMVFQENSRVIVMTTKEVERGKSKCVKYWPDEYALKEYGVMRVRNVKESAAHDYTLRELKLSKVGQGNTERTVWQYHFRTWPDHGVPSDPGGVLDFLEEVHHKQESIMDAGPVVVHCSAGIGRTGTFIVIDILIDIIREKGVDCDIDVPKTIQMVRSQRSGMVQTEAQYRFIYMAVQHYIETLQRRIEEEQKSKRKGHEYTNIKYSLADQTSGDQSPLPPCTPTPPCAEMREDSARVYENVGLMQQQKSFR
# Experimental: as §1
# [7] = molecular target: T2, Pin1 (Homo sapiens, UniProt Q13526, S16A/Y23A); assay: cis-trans isomerase activity, Suc-Ala-Glu-Pro-Phe-pNA; type: biochemical; details: substrate Suc-Ala-Glu-Pro-Phe-pNA; read-out: IC50 for Pin1 catalytic activity
# T2 construct: The full-length human S16A/Y23A mutant Pin1 was expressed and purified from E. coli; made in house
# T2 sequence (Q13526 whole entry S16A/Y23A): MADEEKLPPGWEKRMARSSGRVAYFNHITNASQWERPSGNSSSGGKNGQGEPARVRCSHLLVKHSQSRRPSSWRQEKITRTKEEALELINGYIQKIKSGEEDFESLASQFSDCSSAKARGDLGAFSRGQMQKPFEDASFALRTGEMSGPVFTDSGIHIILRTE
# Experimental: (§2) (FIG. 37A) Binding to FITC-labeled peptide 37 to Pin1 as analyzed by fluorescent anisotropy (FA). (FIG. 37B) Competition between peptide 37 and FITC-labeled peptide 1 (100 nM) for binding to Pin1 (400 nM) as monitored by FA. (FIG. 37C) Effect of peptide 37 on the cis-trans isomerase activity of Pin1, Pin4, FKBP12, and cyclophilin A using Suc-Ala-Glu-Pro-Phe-pNA as substrate. (FIG. 37D) Comparison of the serum stability of peptides 1 and 37.
# (§3) To determine whether peptide 37 binds to the catalytic site of Pin1, its ability to compete with peptide 1 for binding to Pin1 by FA analysis was examined. […] Next, the catalytic activity of Pin1 toward a peptide substrate, Suc-Ala-Glu-Pro-Phe-pNA, in the presence of increasing concentrations of peptide 37 was monitored.
# [8] = molecular target: T2, Pin1; assay: Pin1 binding by FA (FITC-labeled peptides); details: FITC-labeled peptide, FA; read-out: KD
# [9] = molecular target: cyclophilin A (Homo sapiens, UniProt P62937); assay: cis-trans isomerase activity; type: biochemical; details: up to 5 μM
# Sequence of cyclophilin A (P62937 whole entry): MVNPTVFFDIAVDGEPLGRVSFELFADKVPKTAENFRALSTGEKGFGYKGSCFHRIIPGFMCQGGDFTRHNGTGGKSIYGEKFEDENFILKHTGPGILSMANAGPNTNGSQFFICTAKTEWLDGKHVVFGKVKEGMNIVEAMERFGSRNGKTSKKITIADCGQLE
# Experimental: as §2, §1
# [10] = molecular target: FKBP12 (Homo sapiens, UniProt P62942); assay: cis-trans isomerase activity; type: biochemical; details: up to 5 μM
# Sequence of FKBP12 (P62942 whole entry): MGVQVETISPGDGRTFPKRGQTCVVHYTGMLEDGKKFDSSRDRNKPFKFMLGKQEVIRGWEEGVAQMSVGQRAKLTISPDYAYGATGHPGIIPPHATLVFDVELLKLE
# Experimental: as §2, §1
# [11] = molecular target: Pin4 (Homo sapiens, UniProt Q9Y237); assay: cis-trans isomerase activity; type: biochemical
# Sequence of Pin4 (Q9Y237 whole entry): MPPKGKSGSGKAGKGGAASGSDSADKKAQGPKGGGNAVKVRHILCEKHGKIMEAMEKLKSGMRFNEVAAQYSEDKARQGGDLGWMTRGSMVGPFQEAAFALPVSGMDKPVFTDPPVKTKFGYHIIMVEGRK
# Experimental: as §2, §1
# [12] = system: HeLa cells; assay: Cellular uptake by flow cytometry; type: cell-based, human
# Experimental: The cellular uptake efficiency of peptide 37, peptide 1, and a previously reported membrane-impermeable monocyclic Pin1 inhibitor (Table 18, peptide 46) was assessed by incubating HeLa cells with the FITC-labeled peptides (5 μM) for 2 h and quantifying the total intracellular fluorescence by flow cytometry analysis. […] By contrast, cells treated with peptides 1 and 37 gave MFI values of 2562 and 8792, respectively. Thus, peptide 37 is internalized by HeLa cells ˜4-fold more efficiently than peptide 1. Presumably, the negative charged phosphate group of peptide 1 interacted electrostatically with the positively charged CPP motif and reduced the cellular uptake efficiency of the latter.
# [13] = molecular target: T2, Pin1; assay: FA competition with FITC-labeled peptide 1; details: 100 nM FITC-labeled peptide 1, 400 nM Pin1; read-out: IC50 for inhibiting binding of peptide 1 to Pin1
# Experimental: as §2, §3
# [14] = system: HeLa cells
# Excerpt: The effect of peptide 37 on the growth of HeLa cells was examined by using the MTT cell viability assay.
# [15] = system: HeLa cells; assay: Western blot of PML protein level; type: cell-based, human
# Experimental: FIGS. 38A, 38B, 38C, and 38D display cellular activity of peptide 37. (FIG. 38A) Cellular uptake of peptides 1, 37, and 46 (5 μM) by HeLa cells as analyzed by flow cytometry. MFI, mean fluorescence intensity; none, untreated cells (no peptide). (FIG. 38B) Anti-proliferative effect of peptides 37, 46, and 47 on HeLa cells as measured by MTT assay. (FIG. 38C) Western blots showing the effect of peptides 1, 37 and 47 on the protein level of PML in HeLa cells. β-Actin was used as loading control. (FIG. 38D) Quantification of western blot results from (FIG. 38C). Data reported were after background subtraction and represent the mean±SD from 3 independent experiments.
# Finally, to ascertain that Pin1 is the molecular target of peptide 37 in vivo, the intracellular protein level of a well-established Pin1 substrate, […] (PML), was examined by western blot analysis. Pin1 negatively regulates the PML level in a phosphorylation-dependent manner and inhibition of Pin1 activity is expected to stabilize PML and increase its intracellular level. […] The effect was already significant at 0.2 μM inhibitor (1.8-fold increase in the PML level) and plateaued at ˜1 μM (3.3-fold increase). Again, bicyclic peptide 47 had no effect under the same conditions, while peptide 1 (the positive control, at 5 μM) increased the PML level by 3.1-fold.
# [16] = molecular target: bovine serum albumin (BSA) (Bos taurus, UniProt P02769); assay: biochemical; type: binding
# Sequence of bovine serum albumin (BSA) (P02769 25-607): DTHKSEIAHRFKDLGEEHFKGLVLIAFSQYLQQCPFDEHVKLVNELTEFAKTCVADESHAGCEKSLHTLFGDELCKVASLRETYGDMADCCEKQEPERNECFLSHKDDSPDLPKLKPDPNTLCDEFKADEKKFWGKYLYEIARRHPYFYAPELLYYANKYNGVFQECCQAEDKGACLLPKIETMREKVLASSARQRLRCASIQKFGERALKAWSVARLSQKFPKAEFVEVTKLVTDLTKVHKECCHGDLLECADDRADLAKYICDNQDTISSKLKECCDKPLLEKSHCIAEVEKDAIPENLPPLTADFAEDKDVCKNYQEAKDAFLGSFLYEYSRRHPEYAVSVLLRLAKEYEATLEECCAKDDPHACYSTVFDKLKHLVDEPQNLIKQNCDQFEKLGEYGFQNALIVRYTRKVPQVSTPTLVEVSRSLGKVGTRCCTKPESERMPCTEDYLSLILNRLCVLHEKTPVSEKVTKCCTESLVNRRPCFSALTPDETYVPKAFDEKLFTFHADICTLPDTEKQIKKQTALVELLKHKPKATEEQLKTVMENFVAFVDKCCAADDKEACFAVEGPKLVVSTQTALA
# Experimental: as §1
# [17] = molecular target: T3, recombinant caspase-3 enzyme (Homo sapiens, UniProt P42574); assay: In vitro fluorimetric caspase assay; type: biochemical; details: 10 μM substrate, 10 mM DTT
# T3 construct: purchased EMD Chemicals (San Diego, Calif.)
# T3 sequence (P42574 29-175 limits assumed): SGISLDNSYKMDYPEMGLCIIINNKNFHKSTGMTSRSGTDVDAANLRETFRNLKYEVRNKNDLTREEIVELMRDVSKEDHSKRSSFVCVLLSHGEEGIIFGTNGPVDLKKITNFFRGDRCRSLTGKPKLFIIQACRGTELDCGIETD
# T3 sequence (P42574 176-277 limits assumed): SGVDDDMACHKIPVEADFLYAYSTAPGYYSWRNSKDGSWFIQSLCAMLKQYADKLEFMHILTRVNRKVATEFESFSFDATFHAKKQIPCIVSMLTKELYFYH
# Excerpt: Reagents for peptide synthesis were purchased from Advanced ChemTech (Louisville, Ky.), NovaBiochem (La Jolla, Calif.), or Anaspec (San Jose, Calif.). Rink resin LS (100-200 mesh, 0.2 mmol/g) was purchased from Advanced ChemTech. Dextrane^Rho, trypsin and α-chymotrypsin were purchased from Sigma-Aldrich (St. Louis, Mo.). Cell culture media, fetal bovine serum, penicillin-streptomycin, 0.25% trypsin-EDTA, and DPBS were purchased from Invitrogen (Carlsbad, Calif.). Nuclear staining dye DRAQ5 was purchased from Thermo Scientific (Rockford, Ill.). Caspase-3, Human, recombinant protein was purchased from EMD Chemicals (San Diego, Calif.).
# 0.5 μL (100 U/μL) caspase-3 enzyme was first incubated with 90 μL of reaction buffer (50 mM HEPES, pH 7.4, 100 mM NaCl, 10 mM DTT) for 30 min in 96-well plate. Fluorogenic substrates (10 μL, 100 μM) were mixed into the above solutions to start the reactions, and the plate was measured on a Spectramax M5 plate reader (Ex=360 nm, Em=440 nm) (Molecular Devices). Fluorescence units (FU) increase at one-minute intervals was correlated to the release of Amc due to protease activity. The ΔFU/min was calculated from the linear portion of the reaction curve. Reported values are averages of three trials with the standard deviation indicated.
molecule,measurement,setting,value
"C[C@@H]1NC(=O)[C@H](CCCNC(=N)N)NC(=O)[C@H](Cc2ccc3ccccc3c2)NC(=O)[C@@H]2CCCCN2C(=O)[C@@H]([C@H](C)O)NC(=O)[C@H](Cc2ccc(F)cc2)NC(=O)[C@@H](Cc2ccc(F)cc2)NC(=O)c2cc3cc(c2)C(=O)NC[C@H](NC(=O)[C@@H](Cc2ccccc2)NC1=O)C(=O)N[C@@H](Cc1ccccc1)C(=O)N[C@@H](Cc1ccc2ccccc2c1)C(=O)N[C@@H](CCCNC(=N)N)C(=O)N[C@@H](CCCNC(=N)N)C(=O)N[C@@H](CCCNC(=N)N)C(=O)N[C@@H](CCCNC(=N)N)C(=O)N[C@H](C(=O)N[C@@H](CCCCN)C(N)=O)CNC3=O [Peptide 37, bicyclo[Tm-(D-4-Fpa-Fpa-D-Thr-Pip-Nal-Arg-Ala-D-Phe)-Dap-(Phe-Nal-Arg-Arg-Arg-Arg-Dap)]-Lys] ([dPhe(4-F)][Phe(4-F)][dT][Pip][2Nal]RA[dF][Dap]F[2Nal]RRRR[Dap]K-NH2; linker N-9-16 via Trimesoyl; C-terminus assumed)",Binding to Grb2 SH2 domain,[1],not any of the other six proteins
same,Binding to SHP1,[2],not any of the other six proteins
same,Binding to Ras,[3],not any of the other six proteins
same,Binding to protein tyrosine phosphatase 1B,[4],not any of the other six proteins
same,Binding to tumor necrosis factor-a,[5],not any of the other six proteins
same,Binding to SHP2,[6],not any of the other six proteins
same,IC50,[7],170 nM
same,Kd,[8],120 nM
same,Effect on catalytic activity of cyclophilin A,[9],no effect
same,Effect on catalytic activity of FKBP12,[10],no effect
same,inhibition at 5 µM,[11]; 5 μM inhibitor,~15%
same,IC50,[11]; estimated,~34000 nM
same,Internalization more efficient than peptide 1,[12],~4 fold
same,Mean fluorescence intensity (MFI),"[12]; 5 μM FITC-labeled peptide, 2 h",8792
same,IC50,[13],190 nM
same,Growth inhibition,[14]; 3-day treatment with 5 μM,> 60%
same,IC50,"[14]; read-out: IC50 of HeLa cell growth, MTT",1000 nM
same,Increase in the PML level,[15]; 0.2 μM inhibitor,1.8 fold
same,Effect on the PML level,[15]; 0.2-5 μM,concentration-dependent increases in the PML level
same,Increase in the PML level (plateau),[15]; ~1 μM inhibitor,3.3 fold
same,Kd,[16],~20000 nM
"A^c−RRRRRRRRRDΩUD^−A^mc (not fully specified (N-terminus, C-terminus); printed as Ac−RRRRRRRRRDΩUD−Amc) [Peptide 7 (Example 2)]","In vitro activity against recombinant caspase-3 enzyme, ΔFU/min",[17],45.3 ± 6.5 ΔFU/min
